{"source": "patent US6569888B1", "about": "“Anti-inflammatory indole derivatives” (AstraZeneca AB, priority 1999, dated 2003)", "key": {"[1]": {"tested_on": "THP-1 cells", "test": "RANTES mediated chemotaxis", "assay_type": "cell-based", "conditions": "Homo sapiens, RANTES 2 nM, Calcein AM tagged cells", "experimental": "(§1) In vitro chemotaxis assays were performed using the human monocytic cell line THP-1. Cell migration through polycarbonate membranes was measured by enumerating those passing through either directly by Coulter counting or indirectly by use of a colourimetric viability assay measuring the cleavage of a tetrazolium salt by the mitochondrial respiratory chain (Scudiero D. A. et al. 1988, Cancer Res., 48, 4827-4833).\n(§2) Chemoattractants were introduced into a 96-well microtitre plate which forms the lower well of a chemotaxis chamber fitted with a PVP-free 5 μm poresize polycarbonate adhesive framed filter membrane (NeuroProbe MB series, Cabin John, Md. 20818, USA) according to the manufacturer's instructions. […] The plate was incubated at 37° C. for 3 h and the absorbance of the soluble formazan product was read on a microtitre plate reader at 450 nm. The data was input into a spreadsheet, corrected for any random migration in the absence of chemoattractant and the average absorbance values, standard error of the mean, and significance tests were calculated. hMCP-1 induced concentration dependent cell migration with a characteristic biphasic response, maximal […]. […]"}, "[2]": {"tested_on": "THP-1 cells", "test": "hMCP-1 mediated chemotaxis", "assay_type": "cell-based, human", "experimental": "as §1, §2"}, "[3]": {"tested_on": "THP-1 cells", "test": "MCP-1 mediated calcium flux in THP-1 cells", "assay_type": "cell-based, human", "conditions": "stimulation of THP-1 cells with hMCP-1, FURA-2; read-out: EC50 of rise in [Ca2+]i", "experimental": "The human monocytic cell line THP-1 was grown in a synthetic cell culture medium RPMI 1640 supplemented with 10% foetal calf serum, 6 mM glutamine and Penicillin-Streptomycin (at 50 μg streptomycin/ml, Gibco BRL). THP-1 cells were washed in HBSS (lacking Ca^2+ and Mg^2+)+1 mg/ml BSA and resuspended in the same buffer at a density of 3×10^6 cells/ml. The cells were then loaded with […] FURA-2/AM for 30 min at 37° C., washed twice in HBSS, and resuspended at 1×10^6 cells/ml. THP-1 cell suspension (0.9 ml) was added to a 5 ml disposable cuvette containing a magnetic stirrer bar and 2.1 ml of prewarmed (37° C.) HBSS containing 1 mg/ml BSA. 1 mM MgCl2 and 2 mM CaCl2. The cuvette was placed in a fluorescence spectrophotometer (Perkin Elmer, Norwalk, Conn.) and preincubated for 4 min at 37° C. with stirring. Fluorescence was recorded over 70 sec and cells were stimulated by addition of hMCP-1 to the cuvette after 10 sec. [Ca^2+]i was measured by excitation at 340 nm and 380 nm alternately and subsequent measurement of the intensity of the fluorescence emission at 510 nm.\nwhere the Kd for FURA-2 Ca^2+ complex at 37° C. was taken to be 224 nm. […]"}, "[4]": {"biological_target": "T1, MCP-1 receptor B (CCR2B) (Homo sapiens, UniProt P41597)", "T1 construct": "expressed in transfected cells; host or cells: CHO-K1 (clone 7, CHO-CCR2B), membrane fragments", "T1 sequence (P41597 1-360 isoform P41597-2)": "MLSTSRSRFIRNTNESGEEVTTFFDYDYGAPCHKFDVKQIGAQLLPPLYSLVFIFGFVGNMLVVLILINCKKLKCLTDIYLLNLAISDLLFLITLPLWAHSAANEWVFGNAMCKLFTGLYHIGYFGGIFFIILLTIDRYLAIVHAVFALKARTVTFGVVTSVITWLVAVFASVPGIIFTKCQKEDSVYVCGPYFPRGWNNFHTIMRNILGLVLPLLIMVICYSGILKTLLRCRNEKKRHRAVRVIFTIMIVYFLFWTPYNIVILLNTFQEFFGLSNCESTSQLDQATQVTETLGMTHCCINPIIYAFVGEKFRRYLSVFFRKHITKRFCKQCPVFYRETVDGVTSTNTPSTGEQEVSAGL", "test": "hMCP-1 receptor binding assay (125I-MCP-1, CHO-CCR2B cell membranes)", "text": "The MCP-1 receptor B (CCR2B) cDNA was cloned by PCR from THP-1 cell RNA using suitable oligonucleotide primers based on the published MCP-1 receptor sequences (Charo et al., 1994, Proc. Natl. Acad. Sci. USA, 91, 2752). The resulting PCR products were cloned into vector PCR-II™ (In Vitrogen, San Diego, Calif.). Error free CCR2B cDNA was subcloned as a Hind III-Not I fragment into the eukaryotic expression vector pCDNA3 (In Vitrogen) to generate pCDNA3/CC-CKR2A and pCDNA3/CCR2B respectively.\nLinearised pCDNA3/CCR2B DNA was transfected into CHO-K1 cells by calcium phosphate precipitation (Wigler el al., 1979, Cell, 16, 777). Transfected cells were selected by the addition of Geneticin Sulphate (G418, Gibco BRL) at 1 mg/ml, 24 hours after the cells had been transfected. Preparation of RNA and Northern blotting were carried out as described previously (Needham et al., 1995, Prot. Express. Purific., 6, 134). CHO-K1 clone 7 (CHO-CCR2B) was identified as the highest MCP-1 receptor B expresser. […]\n^125I MCP-1 was prepared using Bolton and Hunter conjugation (Bolton et al. 1973, Biochem. J., 133, 529; Amersham International plc]. Equilibrium binding assays were carried out using, the method of Ernst et al., 1994, J. Immunol., 152, 3541. Briefly, varying amounts of ^125I-labeled MCP-1 were added to 7 μg of purified CHO-CCR2B cell membranes in 100 μl of Binding Buffer. After 1 hour incubation at room temperature the binding reaction mixtures were filtered and washed 5 times through a plate washer (Brandel MLR-96T Cell Harvester) using ice cold Binding Buffer. Filter mats (Brandel GF/B) were pre-soaked for 60 minutes in 0.3% polyethylenimine prior to use. Following filtration individual filters were separated into 3.5 ml tubes (Sarstedt No. 55.484) and bound ^125I-labeled MCP-1 was determined (LKB 1277 Gammamaster). […] Non-specific binding was determined by the inclusion of a 200-fold molar excess of unlabelled MCP-1 in the reaction. […]"}}, "note": "Like-named read-outs stand apart in the source and are kept apart here."}
{"molecule": "O=C(O)c1cc2c(OCCCO)cccc2n1Cc1ccc(Cl)c(Cl)c1", "note": "[Compound 15, N-(3,4-Dichlorobenzyl)-4-(3-hydroxypropoxy)indole-2-carboxylic Acid]", "values": [{"measurement": "IC50", "setting": "[1]", "value": 3640, "unit": "nM"}]}
{"molecule": "COc1ccc2c(cc(C(=O)O)n2Cc2ccc(Cl)c(Cl)c2)c1OCC(=O)O", "note": "[Compound 9, N-(3,4-Dichlorobenzyl)-5-methoxy-4-(carboxymethoxy)indole-2-carboxylic Acid]", "values": [{"measurement": "IC50", "setting": "[2]; Homo sapiens, 1 nM MCP-1", "value": 12800, "unit": "nM"}]}
{"molecule": "MCP-1: Human Monocyte Chemoattractant Protein-1, chemokine ligand of the CCR2 receptor", "values": [{"measurement": "EC50", "setting": "[3]", "value": "~2", "unit": "nM"}, {"measurement": "concentration of maximal cell migration (biphasic response)", "setting": "[2]; hMCP-1 as chemoattractant", "value": "0.5-1.0 nm"}, {"measurement": "IC50", "setting": "[4]; cold competition, 100 pM 125I-labeled MCP-1, CHO-CCR2B membrane fragments, read-out: IC50 of MCP-1 binding to CCR2B receptor", "value": 0.11, "unit": "nM"}, {"measurement": "Kd", "setting": "[4]; equilibrium binding, CHO-CCR2B membrane fragments", "value": 0.12, "unit": "nM"}]}
{"molecule": "O=C(O)COc1cccc2c1cc(C(=O)O)n2Cc1ccc(F)c(F)c1", "note": "[Compound 5, N-(3,4-Difluorobenzyl)-4-(carboxymethoxy)indole-2-carboxylic Acid]", "values": [{"measurement": "IC50", "setting": "[4]; competition with 100 pM labelled MCP-1, CHO-CCR2B membranes, 0.01-50 μM, duplicate eight point curves, read-out: IC50 in the hMCP-1 receptor binding assay", "value": 2300, "unit": "nM"}]}
